Data taken from PubChem BioAssay AID248 (DTP/NCI, 2004).
“And” between values parts separate entries of the source, which are not always exact repeats. Equal values may be shown once. Inconclusive results and toxic doses are left out.

Tested on: L1210 leukemia ip in BDF1 mice, survival T/C
Experiment: NCI In Vivo Anticancer Drug Screen. Data for tumor model L1210 Leukemia (intraperitoneal) in B6D2F1 (BDF1) mice
Conditions: endpoint: mean survival time, higher = longer survival
Summary of the method: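 Transplantable tumor model; survival measured in treated vs vehicle control mice. Value = treated/control.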

[1] = dose: 100.0 mg/kg/injection, schedule: Q04DX003 (ip), vehicle: saline
[2] = dose: 200.0 mg/kg/injection, schedule: Q04DX003 (ip), vehicle: saline
[3] = dose: 400.0 mg/kg/injection, schedule: Q04DX003 (ip), vehicle: saline

SMILES: O=C1N[C@@H]([C@H]2CC[C@H](Cl)CN2)C(=O)N[C@H]1[C@H]1CC[C@H](Cl)CN1
- T/C (dose: 0.05 mg/kg/injection, schedule: Q01DX009 (ip), vehicle: saline): 98 % of control and 109 % of control
- T/C (dose: 0.1 mg/kg/injection, schedule: Q01DX009 (ip), vehicle: saline): 104 % of control and 113 % of control
- T/C (dose: 0.2 mg/kg/injection, schedule: Q01DX009 (ip), vehicle: saline): 104 % of control and 124 % of control
- T/C (dose: 0.25 mg/kg/injection, schedule: Q03HX008 (ip), vehicle: saline): 117 % of control
- T/C (dose: 0.25 mg/kg/injection, schedule: Q03HX016 (ip), vehicle: saline): 121 % of control
- T/C (dose: 0.39 mg/kg/injection, schedule: Q01DX009 (ip), vehicle: water): 104 % of control
- T/C (dose: 0.4 mg/kg/injection, schedule: Q01DX009 (ip), vehicle: saline): 107 % of control
- T/C (dose: 0.5 mg/kg/injection, schedule: Q01DX009 (ip), vehicle: saline): 150 % of control
- T/C (dose: 0.5 mg/kg/injection, schedule: Q03HX016 (ip), vehicle: saline): 158 % of control
- T/C (dose: 0.78 mg/kg/injection, schedule: Q01DX009 (ip), vehicle: water): 120 % of control
- T/C (dose: 0.8 mg/kg/injection, schedule: Q01DX009 (ip), vehicle: saline): 190 % of control
- T/C (dose: 1.0 mg/kg/injection, schedule: Q01DX001 (ip), vehicle: other): 103 % of control
- T/C (dose: 1.0 mg/kg/injection, schedule: Q01DX001 (ip), vehicle: saline): 173 % of control
- T/C (dose: 1.0 mg/kg/injection, schedule: Q01DX009 (ip), vehicle: saline): 161 % of control and 186 % of control
- T/C (dose: 1.0 mg/kg/injection, schedule: Q01DX009 (ip), vehicle: water): 108 % of control
- T/C (dose: 1.0 mg/kg/injection, schedule: Q01DX009 (sc), vehicle: saline): 161 % of control
- T/C (dose: 1.0 mg/kg/injection, schedule: Q03HX008 (ip), vehicle: saline): 165 % of control
- T/C (dose: 1.0 mg/kg/injection, schedule: Q03HX016 (ip), vehicle: saline): 280 % of control
- T/C (dose: 1.1 mg/kg/injection, schedule: Q01DX009 (ip), vehicle: saline): 246 % of control
- T/C (dose: 1.25 mg/kg/injection, schedule: Q01DX001 (ip), vehicle: saline): 116 % of control and 122 % of control
- T/C (dose: 1.3 mg/kg/injection, schedule: Q01DX009 (ip), vehicle: saline): 159 % of control
- T/C (dose: 1.5 mg/kg/injection, schedule: Q01DX009 (ip), vehicle: saline): 171 % of control and 189 % of control
- T/C (dose: 1.56 mg/kg/injection, schedule: Q01DX009 (ip), vehicle: water): 160 % of control
- T/C (dose: 1.8 mg/kg/injection, schedule: Q01DX009 (ip), vehicle: saline): 255 % of control
- T/C (dose: 2.0 mg/kg/injection, schedule: Q01DX001 (ip), vehicle: none): 120 % of control
- T/C (dose: 2.0 mg/kg/injection, schedule: Q01DX001 (ip), vehicle: other): 124 % of control
- T/C (dose: 2.0 mg/kg/injection, schedule: Q01DX001 (sc), vehicle: saline): 114 % of control
- T/C (dose: 2.0 mg/kg/injection, schedule: Q01DX009 (ip), vehicle: saline): 206 % of control and 290 % of control and 306 % of control
- T/C (dose: 2.0 mg/kg/injection, schedule: Q01DX009 (ip), vehicle: water): 119 % of control
- T/C (dose: 2.0 mg/kg/injection, schedule: Q01DX009 (oral), vehicle: saline): 173 % of control
- T/C (dose: 2.0 mg/kg/injection, schedule: Q01DX009 (sc), vehicle: saline): 201 % of control
- T/C (dose: 2.0 mg/kg/injection, schedule: Q03HX008 (ip), vehicle: saline): 430 % of control
- T/C (dose: 2.0 mg/kg/injection, schedule: Q03HX016 (ip), vehicle: saline): 207 % of control
- T/C (dose: 2.0 mg/kg/injection, schedule: Q04DX003 (ip), vehicle: saline): 172 % of control
- T/C (dose: 2.0 mg/kg/injection, schedule: Q08DX002 (ip), vehicle: saline): 155 % of control
- T/C (dose: 2.2 mg/kg/injection, schedule: Q01DX009 (ip), vehicle: saline): 210 % of control and 297 % of control
- T/C (dose: 2.6 mg/kg/injection, schedule: Q01DX009 (ip), vehicle: saline): 206 % of control and 470 % of control
- T/C (dose: 3.0 mg/kg/injection, schedule: Q01DX009 (ip), vehicle: saline): 229 % of control
- T/C (dose: 3.13 mg/kg/injection, schedule: Q01DX009 (ip), vehicle: water): 213 % of control
- T/C (dose: 4.0 mg/kg/injection, schedule: Q01DX001 (oral), vehicle: saline): 176 % of control
- T/C (dose: 4.0 mg/kg/injection, schedule: Q01DX009 (oral), vehicle: saline): 86 % of control
- T/C (dose: 4.0 mg/kg/injection, schedule: Q04DX003 (ip), vehicle: saline): 208 % of control
- T/C (dose: 4.0 mg/kg/injection, schedule: Q08DX002 (ip), vehicle: saline): 213 % of control
- T/C (dose: 5.0 mg/kg/injection, schedule: Q01DX001 (ip), vehicle: saline): 165 % of control and 170 % of control
- T/C (dose: 5.0 mg/kg/injection, schedule: Q01DX001 (ip), vehicle: water): 222 % of control
- T/C (dose: 6.25 mg/kg/injection, schedule: Q01DX009 (ip), vehicle: water): 97 % of control
- T/C (dose: 6.5 mg/kg/injection, schedule: Q01DX001 (ip), vehicle: saline): 273 % of control and 327 % of control
- T/C (dose: 6.7 mg/kg/injection, schedule: Q01DX001 (ip), vehicle: saline): 257 % of control
- T/C (dose: 8.0 mg/kg/injection, schedule: Q01DX001 (ip), vehicle: none): 207 % of control
- T/C (dose: 8.0 mg/kg/injection, schedule: Q01DX001 (ip), vehicle: other): 316 % of control
- T/C (dose: 8.0 mg/kg/injection, schedule: Q01DX001 (oral), vehicle: saline): 240 % of control
- T/C (dose: 8.0 mg/kg/injection, schedule: Q01DX001 (sc), vehicle: saline): 150 % of control
- T/C (dose: 8.0 mg/kg/injection, schedule: Q01DX009 (ip), vehicle: water): 279 % of control
- T/C (dose: 8.0 mg/kg/injection, schedule: Q04DX003 (ip), vehicle: saline): 103 % of control
- T/C (dose: 9.1 mg/kg/injection, schedule: Q01DX009 (ip), vehicle: saline): 86 % of control
- T/C (dose: 9.7 mg/kg/injection, schedule: Q01DX001 (ip), vehicle: saline): 151 % of control and 254 % of control
- T/C (dose: 10.0 mg/kg/injection, schedule: Q01DX001 (ip), vehicle: water): 278 % of control
- T/C (dose: 11.6 mg/kg/injection, schedule: Q01DX001 (ip), vehicle: saline): 234 % of control and 314 % of control
- T/C (dose: 16.0 mg/kg/injection, schedule: Q01DX001 (ip), vehicle: none): 155 % of control
- T/C (dose: 16.0 mg/kg/injection, schedule: Q01DX001 (ip), vehicle: other): 279 % of control
- T/C (dose: 16.0 mg/kg/injection, schedule: Q01DX001 (oral), vehicle: saline): 223 % of control
- T/C (dose: 16.0 mg/kg/injection, schedule: Q01DX009 (ip), vehicle: water): 383 % of control
- T/C (dose: 16.0 mg/kg/injection, schedule: Q08DX002 (ip), vehicle: saline): 90 % of control
- T/C (dose: 32.0 mg/kg/injection, schedule: Q01DX001 (ip), vehicle: none): 64 % of control
- T/C (dose: 200.0 mg/kg/injection, schedule: Q01DX001 (ip), vehicle: water): 115 % of control
- T/C (dose: 400.0 mg/kg/injection, schedule: Q01DX001 (ip), vehicle: water): 199 % of control
- T/C (dose: 800.0 mg/kg/injection, schedule: Q01DX001 (ip), vehicle: water): 158 % of control
- T/C (dose: 125.0 micrograms/kg/injection, schedule: Q03HX024 (ip), vehicle: saline): 121 % of control
- T/C (dose: 500.0 micrograms/kg/injection, schedule: Q03HX024 (ip), vehicle: saline): 165 % of control
- T/C (dose: 1000.0 micrograms/kg/injection, schedule: Q03HX024 (ip), vehicle: saline): 211 % of control

SMILES: O=C(CCCl)NCCCCCCNC(=O)CCCl
- T/C (dose: 100.0 mg/kg/injection, schedule: Q01DX001 (ip), vehicle: saline): 100 % of control
- T/C (dose: 200.0 mg/kg/injection, schedule: Q01DX001 (ip), vehicle: saline): 89 % of control
- T/C (dose: 400.0 mg/kg/injection, schedule: Q01DX001 (ip), vehicle: saline): 90 % of control

SMILES: CCOC(=O)CCN(CC)CC
- T/C [1]: 97 % of control
- T/C [2]: 94 % of control
- T/C [3]: 108 % of control

SMILES: COc1ccc2c(c1)CC1(CC2)NCC(=O)NC1=O (stereo unspecified)
- T/C (dose: 100.0 mg/kg/injection, schedule: Q01DX001 (ip), vehicle: carboxymethylcellulose (CMC)): 97 % of control
- T/C (dose: 200.0 mg/kg/injection, schedule: Q01DX001 (ip), vehicle: carboxymethylcellulose (CMC)): 97 % of control
- T/C (dose: 400.0 mg/kg/injection, schedule: Q01DX001 (ip), vehicle: carboxymethylcellulose (CMC)): 115 % of control

SMILES: O=C(O)c1cccc(O)c1[N+](=O)[O-]
- T/C [1]: 97 % of control
- T/C [2]: 95 % of control
- T/C [3]: 97 % of control

SMILES: COc1cc2c(cc1OC)C1=C(CC2)C2CCCN2CC1 (stereo unspecified)
- T/C (dose: 6.25 mg/kg/injection, schedule: Q04DX003 (ip), vehicle: saline): 100 % of control
- T/C (dose: 12.5 mg/kg/injection, schedule: Q04DX003 (ip), vehicle: saline): 97 % of control
- T/C (dose: 25.0 mg/kg/injection, schedule: Q04DX003 (ip), vehicle: saline): 94 % of control and 105 % of control
- T/C (dose: 50.0 mg/kg/injection, schedule: Q04DX003 (ip), vehicle: saline): 102 % of control
